The target in one test is Ls-AChBP (Lymnaea stagnalis, UniProt P58154). The conditions noted are these: cited from earlier work.
The conditions of test [1]: 125I-Bgt displacement assay; cited from earlier work.
Another test deals with AcY55W-AChBP (Aplysia californica, UniProt Q8WSF8, Y72W). The test is described as follows: [3H] epibatidine competition scintillation proximity assay, AcY55W-AChBP. It is filed as binding.
The target in test [2] is T1, α7nAChR (Homo sapiens, UniProt P36544). The test is described as follows: LGIC-CNiFER FRET calcium sensor assay in HEK cells, α7nAChR. The class given is cell-based.
T1 sequence (P36544 23-502): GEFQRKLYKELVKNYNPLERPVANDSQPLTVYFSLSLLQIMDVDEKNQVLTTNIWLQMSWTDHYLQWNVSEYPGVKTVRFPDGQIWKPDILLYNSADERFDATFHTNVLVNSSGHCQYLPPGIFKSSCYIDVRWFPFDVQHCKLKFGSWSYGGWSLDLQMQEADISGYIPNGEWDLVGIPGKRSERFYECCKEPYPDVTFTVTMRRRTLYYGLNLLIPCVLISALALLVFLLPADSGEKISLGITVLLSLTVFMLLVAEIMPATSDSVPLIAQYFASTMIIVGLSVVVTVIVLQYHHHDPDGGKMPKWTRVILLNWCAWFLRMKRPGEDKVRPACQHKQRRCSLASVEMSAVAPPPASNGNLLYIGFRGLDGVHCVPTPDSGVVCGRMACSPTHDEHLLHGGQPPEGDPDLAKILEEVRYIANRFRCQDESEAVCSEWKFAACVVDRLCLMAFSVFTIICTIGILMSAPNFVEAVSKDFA
For test [3], the system named is AChBPs (Ls, Ac, and AcY55W). The test can be described thus: [3H] epibatidine competition SPA, the three AChBPs together. The conditions noted are these: 10 μM of each compound. The class given is binding.
In the next test the target is T2, Ac-AChBP (Aplysia californica, UniProt Q8WSF8).
T2 sequence (Q8WSF8 18-236 limits assumed): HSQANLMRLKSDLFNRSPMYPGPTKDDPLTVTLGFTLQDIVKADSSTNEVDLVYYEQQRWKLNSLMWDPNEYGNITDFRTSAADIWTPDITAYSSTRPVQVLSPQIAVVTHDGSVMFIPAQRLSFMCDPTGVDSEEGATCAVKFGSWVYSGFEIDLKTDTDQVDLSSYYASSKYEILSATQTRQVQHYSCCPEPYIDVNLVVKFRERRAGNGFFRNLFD
The test can be described thus: [3H] epibatidine competition scintillation proximity assay, Ac-AChBP. The class given is binding. A general note: SPA uses beads or plates that emit light when radiolabelled molecules are held near them.

Test [4] concerns the target T1, α7nAChR. It is filed as cell-based.
The next test deals with T3, 5-HT3A (Homo sapiens, UniProt P46098).
T3 sequence (P46098 24-478): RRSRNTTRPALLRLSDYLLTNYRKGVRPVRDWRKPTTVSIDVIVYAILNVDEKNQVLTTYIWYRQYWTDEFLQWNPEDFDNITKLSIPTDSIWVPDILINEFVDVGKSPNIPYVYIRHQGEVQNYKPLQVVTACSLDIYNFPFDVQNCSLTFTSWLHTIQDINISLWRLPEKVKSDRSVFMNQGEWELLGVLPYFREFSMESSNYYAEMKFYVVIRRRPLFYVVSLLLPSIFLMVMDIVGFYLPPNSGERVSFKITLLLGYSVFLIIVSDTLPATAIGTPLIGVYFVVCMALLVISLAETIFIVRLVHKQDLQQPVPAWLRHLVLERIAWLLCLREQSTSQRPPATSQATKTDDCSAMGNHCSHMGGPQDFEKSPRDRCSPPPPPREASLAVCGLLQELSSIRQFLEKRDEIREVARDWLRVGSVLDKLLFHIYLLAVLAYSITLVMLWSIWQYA
The test can be described thus: LGIC-CNiFER FRET calcium sensor assay in HEK cells, 5-HT3A. It is filed as cell-based. The conditions noted are these: control at 0.1 μM.

For another test, the target named is α1nAChR (Homo sapiens, UniProt P02708+Q07001). The test is described as follows: LGIC-CNiFER membrane potential dye assay in HEK cells, α1nAChR. The conditions noted are these: 0.1 µM. The class given is cell-based.
Sequence of α1nAChR (P02708 21-457): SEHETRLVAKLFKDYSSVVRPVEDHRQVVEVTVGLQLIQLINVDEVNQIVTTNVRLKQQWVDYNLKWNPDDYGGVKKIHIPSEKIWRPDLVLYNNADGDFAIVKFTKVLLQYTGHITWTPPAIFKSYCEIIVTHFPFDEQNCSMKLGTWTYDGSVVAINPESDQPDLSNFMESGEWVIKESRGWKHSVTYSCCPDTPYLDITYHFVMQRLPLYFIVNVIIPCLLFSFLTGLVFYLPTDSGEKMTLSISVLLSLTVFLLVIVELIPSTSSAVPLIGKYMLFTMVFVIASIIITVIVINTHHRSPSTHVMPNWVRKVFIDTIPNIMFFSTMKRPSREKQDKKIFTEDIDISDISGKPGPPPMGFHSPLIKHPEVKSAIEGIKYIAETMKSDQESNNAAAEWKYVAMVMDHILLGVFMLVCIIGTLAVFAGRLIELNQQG
Sequence of α1nAChR (P11230 24-501 partner): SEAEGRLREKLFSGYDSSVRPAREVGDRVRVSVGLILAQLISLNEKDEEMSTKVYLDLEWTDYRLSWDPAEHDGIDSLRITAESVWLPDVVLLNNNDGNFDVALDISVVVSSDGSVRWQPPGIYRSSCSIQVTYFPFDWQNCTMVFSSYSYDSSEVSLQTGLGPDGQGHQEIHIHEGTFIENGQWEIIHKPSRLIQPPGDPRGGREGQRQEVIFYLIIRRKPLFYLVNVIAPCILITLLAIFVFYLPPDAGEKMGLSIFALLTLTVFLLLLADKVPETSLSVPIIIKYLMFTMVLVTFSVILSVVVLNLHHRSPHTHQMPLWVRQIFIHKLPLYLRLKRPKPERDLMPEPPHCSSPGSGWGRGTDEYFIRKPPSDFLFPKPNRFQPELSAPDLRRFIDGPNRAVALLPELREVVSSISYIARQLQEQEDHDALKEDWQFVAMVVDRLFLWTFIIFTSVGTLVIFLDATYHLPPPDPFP
Sequence of α1nAChR (Q07001 22-517): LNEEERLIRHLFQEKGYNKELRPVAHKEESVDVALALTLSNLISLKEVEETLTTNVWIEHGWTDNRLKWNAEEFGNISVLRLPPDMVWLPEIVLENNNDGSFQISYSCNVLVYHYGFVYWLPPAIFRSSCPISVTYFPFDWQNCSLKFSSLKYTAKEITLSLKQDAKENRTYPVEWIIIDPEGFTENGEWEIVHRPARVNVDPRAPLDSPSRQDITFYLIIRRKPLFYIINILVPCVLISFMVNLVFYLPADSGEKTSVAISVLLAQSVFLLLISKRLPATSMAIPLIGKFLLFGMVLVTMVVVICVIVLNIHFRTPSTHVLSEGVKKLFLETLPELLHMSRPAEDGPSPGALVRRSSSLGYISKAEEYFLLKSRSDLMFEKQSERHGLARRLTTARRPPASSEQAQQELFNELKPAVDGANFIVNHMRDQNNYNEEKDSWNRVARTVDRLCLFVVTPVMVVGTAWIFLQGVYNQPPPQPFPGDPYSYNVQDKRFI

The values that follow come from publication PMC4762448 (Journal of biomolecular screening, 2011).

Read-outs that look alike come from different tables or passages of the source.

Sequence of Ls-AChBP (P58154 20-229 limits assumed): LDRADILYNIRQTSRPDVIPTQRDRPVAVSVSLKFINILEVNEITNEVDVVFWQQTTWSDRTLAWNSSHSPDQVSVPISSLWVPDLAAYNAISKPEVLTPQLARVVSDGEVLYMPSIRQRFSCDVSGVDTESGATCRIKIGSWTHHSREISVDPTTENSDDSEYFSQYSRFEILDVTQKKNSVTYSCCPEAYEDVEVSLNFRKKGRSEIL
Sequence of AcY55W-AChBP (Q8WSF8 18-236 Y72W limits assumed): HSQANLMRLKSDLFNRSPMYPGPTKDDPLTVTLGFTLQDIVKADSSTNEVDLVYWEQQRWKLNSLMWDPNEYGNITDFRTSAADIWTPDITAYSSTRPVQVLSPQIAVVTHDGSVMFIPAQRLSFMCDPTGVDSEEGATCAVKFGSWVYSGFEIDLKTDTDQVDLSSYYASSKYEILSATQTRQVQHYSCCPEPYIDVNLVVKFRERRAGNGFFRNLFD

`CC(=O)OCC[N+](C)(C)C` [ACh, acetylcholine]: the dissociation constant Kd on Ls-AChBP is 823 nM. Further, the negative logarithm of the Kd (pKd) in [1] is 5.5.
Take `C[N+]1(C)[C@@H]2CC[C@H]1C[C@@H](OC(=O)C(CO)c1ccccc1)C2` (stereo partly drawn) [Compound 10]: the results for the Kd at AcY55W-AChBP and at Ac-AChBP were 2010 ± 137 nM and 882 ± 117 nM, respectively. Moreover, the “selectivity of antagonism among LGIC-CNiFERs” value at α7nAChR [2] is on record as “nonselective antagonists”. The “interference with the binding of [3H] epibatidine to BPs (screening)” value in test [3] was “significant interference”.
Consider `CCN1C[C@]2(COC(=O)c3ccccc3N3C(=O)C[C@H](C)C3=O)CC[C@H](OC)[C@@]34[C@@H]5C[C@H]6[C@H](OC)[C@@H]5[C@](O)(C[C@@H]6OC)[C@@](O)([C@@H](OC)[C@H]23)[C@@H]14` [MLA, methyllycaconitine], for which, at α7nAChR [2] (1 µM), the “percent inhibition, α7nAChR” value is listed as 79 ± 6.4%. In addition, the “inhibition of current response elicited by 100 μM ACh” value on α7nAChR [4] is given as “completely inhibited”.
Turning to `CN1[C@@H]2CC[C@H]1C[C@@H](OC(=O)c1c[nH]c3ccccc13)C2` [Tropocitron], the “percent inhibition, 5-HT3A” value on 5-HT3A is 96 ± 0.6%.
As for `C[N+](C)(C)CCOC(N)=O` [carbamylcholine], the Kd at Ls-AChBP (isothermal titration calorimetry using Ls-AChBP) was 7580 nM.
With `CN1CCC[C@H]1c1cccnc1` [nicotine], the negative logarithm of the Kd (pKd) in [1] is reported as 7.2.
Consider α-Bungarotoxin, for which the “percent inhibition, α1nAChR” value on α1nAChR was 94 ± 0.8%.

Usually Kd stands for the equilibrium constant for the complex coming apart. Usually pKd stands for the negative decadic logarithm of the Kd, by convention in mol/L.
